Drawing on patent publication US7541367B2, “3-benzoimidazolyl-pyrazolopyridines useful in treating kinase disorders” (Janssen Pharmaceutica, N.V., priority 2005, dated 2009), this text covers IC50 and Tumor volume for 2 compounds.

For one experiment, the target named is T1, VEGF-R2 (Rattus norvegicus, UniProt O08775).
T1 construct: polyhistidine (N)
The experiment in a line: VEGF-R2 kinase screening assay (33P-ATP FlashPlate).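 Also: Read-out is ³³P incorporation from ³³P-γ-ATP into biotinylated peptide substrate captured on streptavidin FlashPlate, counted by scintillation, 1% DMSO final, inhibition scaled between per-plate maximum and minimum signals.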 The experiment is classed as biochemical. The note with it: rat VEGF-R2 kinase domain; 10 μM ATP; 1 hr at 30° C.

The target in a further experiment is T2, Aurora-A (Mus musculus, UniProt P97477).
T2 construct: polyhistidine (N)
T2 sequence (P97477 1-395): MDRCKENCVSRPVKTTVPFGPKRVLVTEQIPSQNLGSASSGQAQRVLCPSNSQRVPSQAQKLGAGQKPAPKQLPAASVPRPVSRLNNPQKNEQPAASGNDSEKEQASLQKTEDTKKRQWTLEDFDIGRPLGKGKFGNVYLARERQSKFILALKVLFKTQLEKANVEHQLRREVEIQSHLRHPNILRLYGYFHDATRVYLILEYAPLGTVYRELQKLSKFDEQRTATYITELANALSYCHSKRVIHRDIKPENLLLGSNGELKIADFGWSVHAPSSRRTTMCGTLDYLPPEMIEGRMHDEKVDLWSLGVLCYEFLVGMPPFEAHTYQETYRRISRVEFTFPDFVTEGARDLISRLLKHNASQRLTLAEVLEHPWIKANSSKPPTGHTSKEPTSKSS
The experiment in a line: Aurora-A kinase screening assay (33P-ATP FlashPlate).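 Also: His-tagged mouse Aurora-A phosphorylating a biotinylated peptide captured on streptavidin plates, read as 33P uptake by scintillation counting, 1% DMSO, inhibition scaled between per-plate maximum and minimum signals.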 The experiment is classed as biochemical. The note with it: 10 μM ATP, 1 hr at 30° C.

Another experiment deals with T3, RET (Homo sapiens, UniProt P07949).
T3 construct: polyhistidine (N)
T3 sequence (P07949 658-1114 limits assumed): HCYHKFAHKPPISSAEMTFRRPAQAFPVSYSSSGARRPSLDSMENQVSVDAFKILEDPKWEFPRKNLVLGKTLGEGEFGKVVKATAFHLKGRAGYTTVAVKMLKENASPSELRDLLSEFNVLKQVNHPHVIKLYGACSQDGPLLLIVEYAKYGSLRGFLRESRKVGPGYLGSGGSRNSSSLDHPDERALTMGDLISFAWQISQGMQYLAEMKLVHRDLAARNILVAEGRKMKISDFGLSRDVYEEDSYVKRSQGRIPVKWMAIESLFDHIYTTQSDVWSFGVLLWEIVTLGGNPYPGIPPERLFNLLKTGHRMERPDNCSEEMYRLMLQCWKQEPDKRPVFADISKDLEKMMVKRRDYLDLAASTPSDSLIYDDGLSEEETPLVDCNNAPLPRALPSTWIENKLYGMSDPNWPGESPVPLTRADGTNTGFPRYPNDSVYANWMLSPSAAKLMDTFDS
The experiment in a line: RET kinase screening assay (33P-ATP FlashPlate).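 Also: biotinylated peptide substrate captured on streptavidin FlashPlate, 33P phosphate transfer read by scintillation counting, 1% DMSO, lower incorporation means inhibition, percent relative to per-plate maximum and minimum signals.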 The experiment is classed as biochemical. The note with it: human RET kinase domain; 10 μM ATP; 1 hr at 30° C.

Another experiment concerns the target T4, c-Src kinase (Homo sapiens, UniProt P12931).
T4 construct: purchased Upstate Biotechnology, Lake Placid, N.Y
The experiment is described as follows: c-Src Kinase Assay. To be noted: 5 μM ATP. Type of experiment: biochemical. The method in brief: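 Human c-Src phosphorylated Cdc2 peptide (100 μM) […]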

The target of the next experiment is T5, Lyn kinase (Homo sapiens, UniProt P07948).
T5 construct: purchased Upstate Biotechnology, Lake Placid, N.Y
T5 sequence (P07948 whole entry): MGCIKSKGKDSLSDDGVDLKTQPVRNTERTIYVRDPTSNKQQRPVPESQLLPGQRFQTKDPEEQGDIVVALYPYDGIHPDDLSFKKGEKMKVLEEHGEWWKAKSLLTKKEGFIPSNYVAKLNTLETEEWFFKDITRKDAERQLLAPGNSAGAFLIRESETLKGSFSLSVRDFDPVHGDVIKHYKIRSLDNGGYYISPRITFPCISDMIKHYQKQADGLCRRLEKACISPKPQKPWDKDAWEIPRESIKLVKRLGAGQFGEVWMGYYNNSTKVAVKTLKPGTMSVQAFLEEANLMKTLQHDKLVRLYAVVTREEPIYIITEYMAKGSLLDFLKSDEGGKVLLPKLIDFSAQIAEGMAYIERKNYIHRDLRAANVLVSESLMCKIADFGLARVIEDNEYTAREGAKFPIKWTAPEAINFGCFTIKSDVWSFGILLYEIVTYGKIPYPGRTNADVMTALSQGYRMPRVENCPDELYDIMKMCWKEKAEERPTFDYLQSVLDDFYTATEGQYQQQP
The experiment in a line: Lyn Kinase Assay. The experiment is classed as biochemical. To be noted: 5 μM ATP. Put shortly:
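Recombinant human Lyn kinase in pH 7.5 Tris buffer with EGTA, vanadate, β-mercaptoethanol and BSA reacted with compound for 40 min at 30° C. The radiolabelled product was captured on P30 filtermats after phosphoric acid stop and counted by scintillation. IC50 came from percent inhibition versus log concentration, using plate maximum/minimum signals.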

For a further experiment, the system named is A375 malignant melanoma. The experiment in a line: Cell Proliferation Inhibition Assay (14C-thymidine incorporation), A375.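 Also: proliferation measured by radiolabelled thymidine uptake into new DNA, counted in scintillating 96-well plates, compound-treated wells compared with DMSO-only control wells.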 To be noted: Homo sapiens, A-375, A375 cells. The experiment is classed as cell-based.
In another experiment the test system is HCT-116 colon carcinoma. The experiment is described as follows: Cell Proliferation Inhibition Assay (14C-thymidine incorporation), HCT-116.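 Also: proliferation measured as methyl 14C-thymidine uptake into new DNA, counted in 96-well scintillating microplates, compared with DMSO-only control wells.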 Type of experiment: cell-based. To be noted: Homo sapiens, HCT-116, HCT-116 cells.
In experiment [1] the test system is Human melanoma A375 cells. The experiment is described as follows: In Vivo Models - Inhibition of Tumor Growth (A375 xenograft). The note with it: female athymic mice, 25 mg/kg i.p. daily. As to the method:
The ability of test compounds to inhibit unregulated growth of human tumor cells in vivo was evaluated by implanting human tumor cells into the hindflank of athymic mice, administering a test compound and then quantifying any change in tumor size.
Certain compounds at particular doses produced adverse effects in this model. One skilled in the art would be able to establish the effective amount of compound required to achieve an effective therapeutic window.
Human melanoma A375 cells were implanted subcutaneously into the hindflank of female athymic mice (Charles River) and allowed to grow for 6-10 days. After a measurable tumor was established (as determined by baseline caliper measurement), the animal was administered an intraperitoneal (i.p.) dose of the test compound daily at 25 mg/kg for the length of the study. Tumor size was measured at certain intervals as shown in Table 5 and the degree of inhibition for a test compound was determined by comparing the reduction in tumor volume for drug-treated animals to that of untreated and vehicle-treated animals. The vehicle used was 20% hydroxypropyl β-cyclodextran.

T1 sequence (O08775 786-1343): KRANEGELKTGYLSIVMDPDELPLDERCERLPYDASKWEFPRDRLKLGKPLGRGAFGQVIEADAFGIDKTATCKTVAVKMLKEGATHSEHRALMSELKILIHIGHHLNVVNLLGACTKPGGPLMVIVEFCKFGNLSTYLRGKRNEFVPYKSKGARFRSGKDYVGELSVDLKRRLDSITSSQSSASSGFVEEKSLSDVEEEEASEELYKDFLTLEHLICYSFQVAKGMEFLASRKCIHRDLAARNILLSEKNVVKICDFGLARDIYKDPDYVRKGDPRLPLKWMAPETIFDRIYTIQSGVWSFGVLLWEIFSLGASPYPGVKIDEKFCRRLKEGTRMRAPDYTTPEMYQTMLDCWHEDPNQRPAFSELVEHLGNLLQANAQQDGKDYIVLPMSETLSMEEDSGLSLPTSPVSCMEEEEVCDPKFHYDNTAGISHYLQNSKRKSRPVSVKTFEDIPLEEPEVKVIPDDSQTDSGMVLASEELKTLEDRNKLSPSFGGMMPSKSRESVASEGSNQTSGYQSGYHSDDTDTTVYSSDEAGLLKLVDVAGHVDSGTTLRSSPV
T4 sequence (P12931 whole entry): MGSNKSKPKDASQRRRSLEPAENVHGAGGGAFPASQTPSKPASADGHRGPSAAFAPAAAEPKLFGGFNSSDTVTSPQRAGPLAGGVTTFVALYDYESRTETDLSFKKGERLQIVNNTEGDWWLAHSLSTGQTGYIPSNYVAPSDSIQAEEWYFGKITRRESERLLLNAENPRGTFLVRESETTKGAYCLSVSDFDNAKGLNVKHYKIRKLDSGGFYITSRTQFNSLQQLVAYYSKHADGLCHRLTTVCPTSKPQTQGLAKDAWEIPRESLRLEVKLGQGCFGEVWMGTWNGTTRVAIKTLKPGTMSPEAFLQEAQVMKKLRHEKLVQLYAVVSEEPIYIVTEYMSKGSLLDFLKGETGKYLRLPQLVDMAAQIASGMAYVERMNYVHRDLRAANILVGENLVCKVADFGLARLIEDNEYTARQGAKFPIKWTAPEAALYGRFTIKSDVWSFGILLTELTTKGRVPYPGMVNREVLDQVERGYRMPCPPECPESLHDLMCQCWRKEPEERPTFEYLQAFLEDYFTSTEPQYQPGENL

One may read the IC50 as the concentration at which inhibition is half-maximal. Read a high IC50 as weaker potency. Consider `CCNCc1cncc(-c2cnc3[nH]nc(-c4nc5cc(OC)ccc5[nH]4)c3c2)c1` [Cpd 101, ethyl-{5-[3-(5-methoxy-1H-benzoimidazol-2-yl)-1H-pyrazolo[3,4-b]pyridin-5-yl]-pyridin-3-ylmethyl}-amine], for which the 50% inhibitory concentration (IC50) was greater than 0.1 µM against VEGF-R2; 0.356 µM on Aurora-A; roughly 1 µM against RET; 0.00885 µM on c-Src kinase; 0.00254 µM against Lyn kinase; 0.101 µM in the experiment on A375 malignant melanoma. Further, the IC50 with HCT-116 colon carcinoma came to 0.0487 µM. Further, the Tumor volume in experiment [1] (Day 1) is listed as 95.4 mm^3; in experiment [1] (Day 4), 128 mm^3; in experiment [1] (Day 8), 354.1 mm^3; in experiment [1] (Day 11), 632.3 mm^3; in experiment [1] (Day 14), 988.7 mm^3.

Consider `CNCc1cncc(-c2cnc3[nH]nc(-c4nc5cc(OC(F)(F)F)ccc5[nH]4)c3c2)c1` [Cpd 96, methyl-{5-[3-(5-trifluoromethoxy-1H-benzoimidazol-2-yl)-1H-pyrazolo[3,4-b]pyridin-5-yl]-pyridin-3-ylmethyl}-amine], for which the concentration for half-maximal inhibition (IC50) against VEGF-R2 is greater than 0.1 µM; at Aurora-A it was roughly 1 µM; at RET, greater than 100 µM; against c-Src kinase, 0.0312 µM; at Lyn kinase, 0.00838 µM; in the experiment with A375 malignant melanoma, 0.0471 µM. The same compound came in with an IC50 with HCT-116 colon carcinoma of 0.0555 µM. Besides, the values for the Tumor volume in experiment [1] (Day 1) and in experiment [1] (Day 4) were 95.4 mm^3 and 68.3 mm^3, respectively.
